Results: US9670463B2, “Inhibition and enhancement of reprogramming by chromatin modifying enzymes” (Children's Medical Center Corporation, priority 2011, dated 2017)

Assays:
[1] = tested on: iPS-derived secondary MEFs; assay: Reprogramming of inducible iPS-derived secondary MEFs, AP+ colonies; format: cell-based, mouse; details: doxycycline, iDot1L 10 um
[2] = tested on: Oct4-GFP MEFs; assay: Reprogramming of OSKM transduced Oct4-GFP MEFs, AP+ colonies; format: cell-based, mouse; details: iDot1L 10 um
Description: It was assessed whether these observations can be extended to the murine system. It was observed that, similar to human fibroblasts, iDot1L treatment led to 3-fold enhancement of reprogramming of Oct4-GFP MEFs (FIG. 3D). […] Data correspond to the average and s.d.; n=4. *P<0.001 compared untreated MEFs. Representative AP-stained wells and GFP-positive iPS colonies derived from each condition are shown in the lower panel.

[3] = tested on: H3K79 methylation; assay: Total H3K79me2 levels in fibroblasts by western blotting; format: cell-based, human; details: 1 uM to 10 uM concentration range, fibroblasts treated 5 days
From the text: In addition to the shRNA mediated knockdown of Dot1L, a small molecule inhibitor of Dot1L catalytic activity was used to further validate the findings^15. […] Data correspond to the average and s.d.; n=3. *P<0.001 compared untreated fibroblasts.

[4] = tested on: H3K79me2; assay: ChIP-seq for H3K79me2 on OSKM expressing fibroblasts; format: cell-based, human; details: iDot1L 10 uM; 6 days after OSKM
Description: ChIP-seq was performed as described with slight modifications^25. 300 000 cells were fixed at room temperature in PBS 1% formalin (v/v) for 10 minutes with gentle agitations. Fixation was stopped by the addition of glycine (125 mM final concentration) and agitation for 5 min at room temperature. Fixed cells were washed twice in ice-cold PBS, resuspended in 100 ul of SDS lysis buffer (1% SDS, 10 mM EDTA, 50 mM Tris-HCl, pH 8.1). Chromatin was sheared by sonication to about 100-500 bp fragments using bioruptor (diagenode, Denville, N.J.) and diluted tenfold with dilution buffer (0.01% SDS, 1.1% Triton-X100, 1.2 mM EDTA, 16.7 mM Tris-HCl, pH 8.1, 167 mM NaCl). Antibodies against specific histone modifications was added to sonicated chromatin solution and incubated at 4 degree overnight with gentle agitation. The antibodies used were anti-H3K27me3 (Millipore 07-449) and anti-H3K79me2 (abcam 3594). Immune complexes were collected by incubation with 20 ul of Protein A/G agarose beads (Millipore) for an hour at 4 degree with gentle agitation. […]

[5] = tested on: dH1f cells; assay: Reprogramming assay, Tra-1-60+ iPSC colonies from dH1f fibroblasts; format: cell-based, human
Description: dH1f cells were first infected with shRNA viruses at high MOI to ensure all cells received at least one vector (Gauged by puromycin resistance of parallel infected wells). 25,000 shRNA-infected dH1f cells were then plated per well in 12-well plates and infected overnight with either retroviral (MOI 2.5) 7 or lentiviral (Addgene #21162, 21164; 100-200 μl supernatant)29 reprogramming factors. For 2-factor reprogramming, Oct4 and Sox2 viruses were used at an MOI of 5. 6 days later, cells were trypsinized and re-plated 1:4 to 1:6 onto 6-well plates. Medium was changed to hES medium daily until Day 21 when plates were fixed. Small molecule inhibitor of Dot1L, EPZ004777 (a gift from Epizyme, Inc., Cambridge, Mass.) was dissolved in DMSO as a 10 mM stock and was added at the indicated concentrations. For Dot1L rescue experiments, an MSCV-based retroviral vector encoding human Dot1L with or without mutations in the SAM binding site (gifts of Y. Zhang) were mutagenized at the shRNA target site using QuikChange II XL Site-Directed Mutagenesis Kit (Agilent Technologies). In certain experiments, Nanog and Lin28 expression was achieved using lentivirus (Addgene #21163). IMR-90 and MRC5 human diploid fibroblasts were purchased from ATCC and 50000 cells were used in reprogramming experiments. Statistical analysis was performed using a Student's t-test.
Immunostaining of reprogramming plates were performed as described^8. Briefly, cells were fixed with 4% p-formaldehyde and stained with biotin-anti-Tra-1-60 (eBioscience, #13-8863-82, 1:250) and streptavidin horseradish peroxidase (Biolegend, #405210, 1:500) diluted in PBS (3%), FCS (0.3%) Triton X-100. Staining was developed with the Vector labs DAB kit (#SK-4100), and iPSC colonies quantified with ImageJ software. For the characterization of shDot1l-iPS cells, single colonies were put onto MEF coated 96-well plates. The plates were fixed for 20 min with 4% p-formaldehyde/PBS (+/+), washed several times with PBS (+/+) and incubated overnight at 4° C. with primary antibody and Hoechst diluted in 3% donkey serum/3% BSA Fraction VII/0.01% Triton X-100/PBS (+/+); Hoechst, Invitrogen #H3570 (1:20,000), Tra-1-81/A488 (BD #560174), SSEA-4/A647 (BD #560219), Tra-1-60/A647 (BD #560122), Nanog, rabbit polyclonal (Abcam #ab21624), Oct4, rabbit polyclonal (Abcam #ab19857). For Nanog and Oct4, donkey anti-rabbit IgG/A555 (Molecular Probes #A31572) secondary antibody was used. After several washes with PBS (+/+), images were acquired using a BD Pathway 435 imager equipped with a ×10 objective.

[6] = iDot1L 10 uM, OSKM, Tra-1-60+ colonies at 21 days

CC(C)N(CCCNC(=O)Nc1ccc(C(C)(C)C)cc1)C[C@H]1O[C@@H](n2ccc3c(N)ncnc32)[C@H](O)[C@@H]1O.Cl [EPZ004777]
reprogramming efficiency of secondary MEFs [1]: increased reprogramming efficiency | enhancement of reprogramming of Oct4-GFP MEFs [2]: 3 fold | H3K79 methylation [3]: abrogated H3K79 methylation robustly | K79me2 levels on genes [4]: reduced on almost all genes | enhancement of reprogramming of human fibroblasts ([5]; OSKM, dH1f cells treated for 21 days, relative to untreated): 3-4 fold | reprogramming efficiency, inhibitor combined with Dot1L knockdown ([5]; iDot1L 10 uM plus Dot1L shRNA, OSKM, 21 days): did not result in a further increase of reprogramming efficiency | reprogramming, pretreatment for 5 days prior to OSKM transduction [5, 6]: no effect | reprogramming, treatment in the first or the second week [5, 6]: sufficient to enhance reprogramming | reprogramming in the absence of Klf4, c-Myc or both ([5]; iDot1L 10 uM, Tra-1-60 staining 21 days after reprogramming): allowed reprogramming in the absence of either Klf4 or Myc and was able to replace both of these exogenous factors
